The assay concerns the target T1, recombinant human GR (Homo sapiens, UniProt P04150).
T1 construct: purchased Panvera/Invitrogen P2812 (kit P2893)
T1 sequence (P04150 1-777): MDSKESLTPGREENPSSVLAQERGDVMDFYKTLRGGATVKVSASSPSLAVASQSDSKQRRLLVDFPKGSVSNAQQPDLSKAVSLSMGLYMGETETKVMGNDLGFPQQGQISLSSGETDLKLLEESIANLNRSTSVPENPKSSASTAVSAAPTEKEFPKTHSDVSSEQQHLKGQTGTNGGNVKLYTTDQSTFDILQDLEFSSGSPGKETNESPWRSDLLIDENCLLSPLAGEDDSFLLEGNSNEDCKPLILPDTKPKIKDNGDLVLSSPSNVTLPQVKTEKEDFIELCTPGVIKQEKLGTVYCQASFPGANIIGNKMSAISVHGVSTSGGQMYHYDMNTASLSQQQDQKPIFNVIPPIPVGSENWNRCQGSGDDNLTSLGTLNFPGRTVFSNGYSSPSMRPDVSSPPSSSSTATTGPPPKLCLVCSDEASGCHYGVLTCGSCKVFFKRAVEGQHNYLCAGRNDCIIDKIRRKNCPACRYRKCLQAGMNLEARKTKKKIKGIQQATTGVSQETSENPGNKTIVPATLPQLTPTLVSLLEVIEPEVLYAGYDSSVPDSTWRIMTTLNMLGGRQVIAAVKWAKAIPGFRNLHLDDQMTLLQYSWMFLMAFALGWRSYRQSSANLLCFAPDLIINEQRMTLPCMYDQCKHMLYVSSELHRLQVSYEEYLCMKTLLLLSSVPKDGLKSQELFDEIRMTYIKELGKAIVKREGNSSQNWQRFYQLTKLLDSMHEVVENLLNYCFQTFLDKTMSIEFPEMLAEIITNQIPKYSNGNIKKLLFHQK
Kind of assay: Human Glucocorticoid Receptor (GR) Assay (fluorescence polarization, Panvera/Invitrogen kit). The note with it: GS Red tracer, 2 hours at room temperature, 100% control 10 μM Dexamethasone, read-out: Inhibition of GR binding, IC50. In outline:
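Fluorescence polarization competition binding of compounds against Fluoromone GS Red tracer on recombinant human GR, in buffer of potassium phosphate, sodium molybdate, EDTA, DMSO with stabilizing peptide and DTT. Incubated 2 h at room temperature in the dark; read at ex 530/em 590 nm. Controls: DMSO (0%), 10 μM dexamethasone (100%).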
In general terms: In fluorescence polarisation assays a small probe gives low polarisation when free and higher when bound to something large.
For `C[C@]12C=CC(=O)C=C1[C@@H](F)C[C@H]1[C@@H]3C[C@H]4OC(c5cccc6c5OCC6)O[C@@]4(C(=O)SCF)[C@@]3(C)C[C@H](O)[C@@]12F` (stereo partly drawn) [Example 32, S-(Fluoromethyl)(4aS,4bR,5S,6aS,6bS,9aR,10aS,10bS,12S)-8-(2,3-dihydro-1-benzofuran-7-yl)-4b,12-difluoro-5-hydroxy-4a,6a-dimethyl-2-oxo-2,4a,4b,5,6,6a,9a,10,10a,10b,11,12-dodecahydro-6bH-naphtho[2′,1′:4,5]indeno[1,2-d][1,3]dioxole-6b-carbothioate], the concentration for half-maximal inhibition (IC50) – broadly, the concentration at which inhibition is half-maximal – came to 1 nM.

With `CSC(=O)[C@@]12OC(c3ccc(C)o3)O[C@@H]1C[C@H]1[C@@H]3C[C@H](F)C4=CC(=O)C=C[C@]4(C)[C@@]3(F)[C@@H](O)C[C@@]12C` (stereo partly drawn) [Example 8, S-Methyl (4aS,4bR,5S,6aS,6bS,9aR,10aS,10bS,12S)-4b,12-difluoro-5-hydroxy-4a,6a-dimethyl-8-(5-methyl-2-furyl)-2-oxo-2,4a,4b,5,6,6a,9a,10,10a,10b,11,12-dodecahydro-6bH-naphtho[2′,1′:4,5]indeno[1,2-d][1,3]dioxole-6b-carbothioate], the IC50 worked out at 1.9 nM.

As to `COc1ccc([C@H]2O[C@@H]3C[C@H]4[C@@H]5CCC6=CC(=O)C=C[C@]6(C)[C@H]5[C@@H](O)C[C@]4(C)[C@]3(C(=O)SC)O2)c(F)c1` (single isomer, unassigned) [Example 38 (8S)], the IC50 is 0.88 nM.

As to `Cc1ccc(C2O[C@@H]3C[C@H]4[C@@H]5C[C@H](F)C6=CC(=O)C=C[C@]6(C)[C@@]5(F)[C@@H](O)C[C@]4(C)[C@]3(C(=O)SCF)O2)cc1` (stereo partly drawn) [Example 17, S-(Fluoromethyl)(4aS,4bR,5S,6aS,6bS,9aR,10aS,10bS,12S)-4b,12-difluoro-5-hydroxy-4a,6a-dimethyl-8-(4-methylphenyl)-2-oxo-2,4a,4b,5,6,6a,9a,10,10a,10b,11,12-dodecahydro-6bH-naphtho[2′,1′:4,5]indeno[1,2-d][1,3]dioxole-6b-carbothioate], the IC50 is 1.8 nM.
